Consider 14 compounds from patent publication US11702422B2, “Imidazopyridazines as modulators of IL-17” (Janssen Pharmaceutica NV, priority 2020, dated 2023).

In general, IC50 refers to the midpoint of a concentration-inhibition curve. A low value points to greater potency.

SMILES strings stand for the structures.

The target in assay [1] is IL-17A(FLAG-Tagged): IL-17RA(His-Tagged) (Homo sapiens, UniProt Q16552, K93Q). As to the kind of experiment: IL-17A(FLAG-Tagged): IL-17RA(His-Tagged) Binding Disruption Eu-HTRF Assay. The settings on record: IL-17A/IL-17RA binding disruption, simple average if tested more than once. An outline of the steps: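 IC50 comes from a one-site competition fit of the HTRF 665/620 nm ratio. Compound dilutions (2-fold, 22 points) were held 1 h rt with FLAG-tagged IL-17A dimer, then His-tagged IL-17RA plus Eu-cryptate anti-FLAG and D2 anti-His antibodies were added for 2 h rt.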
On the technique in general: TR-FRET usually uses a lanthanide donor and a delayed reading to cut background.

In assay [2] the test system is IL-17A-induced G-CSF production in human normal keratinocyte (NHK). As to the kind of experiment: NHK Assay: IL-17A-induced G-CSF production in human normal keratinocytes. The class given is cell-based. As to conditions: adult normal human keratinocytes, IL-17A 5 ng/mL, 24 h, simple average if tested more than once. An outline of the steps: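 Adult NHK, 3000-4000 cells/well; rhIL-17A + titrated cpd preincubated 1 h rt, then onto cells. Final: IL-17A 5 ng/mL, DMSO 0.2%, 5% FBS. 24 h, 37° C. G-CSF in supernatant by HTRF vs standard curve; IC50. Viability by CellTiter-Glo vs DMSO.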

Chain of UniProt Q16552 (Q16552 with tags, fused parts or gaps K93Q): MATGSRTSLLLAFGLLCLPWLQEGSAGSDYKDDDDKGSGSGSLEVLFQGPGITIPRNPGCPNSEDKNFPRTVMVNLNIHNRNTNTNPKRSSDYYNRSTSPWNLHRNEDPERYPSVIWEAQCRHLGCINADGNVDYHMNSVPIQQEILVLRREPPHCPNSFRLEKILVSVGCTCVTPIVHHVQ

On to `CC(C)n1nccc1C(=O)N[C@H](c1cn2ncc(C(NC(=O)CC3CC(F)(F)C3)C(C)(C)O)cc2n1)C1CCC(F)(F)CC1` (single isomer, unassigned) [Example 444, N—((S)-(7-((R*)-1-(2-(3,3-Difluorocyclobutyl)acetamido)-2-hydroxy-2-methylpropyl)imidazo[1,2-b]pyridazin-2-yl)(4,4-difluorocyclohexyl)methyl)-1-isopropyl-1H-pyrazole-5-carboxamide], for which the IC50 in assay [1] was 2.3 µM; in assay [2], 11 µM.

Regarding `Cc1nonc1C(=O)N[C@H](c1cn2ncc(C(NC(=O)CC3CC(F)(F)C3)C(C)(C)O)cc2n1)C1CCC(F)(F)CC1` (single isomer, unassigned) [Example 445, N—((S)-(7-((R*)-1-(2-(3,3-Difluorocyclobutyl)acetamido)-2-hydroxy-2-methylpropyl)imidazo[1,2-b]pyridazin-2-yl)(4,4-difluorocyclohexyl)methyl)-4-methyl-1,2,5-oxadiazole-3-carboxamide], the IC50 is 5.8 µM in assay [1] and greater than 20 µM in assay [2].

With `Cc1nonc1C(=O)N[C@H](c1cn2ncc(C(CC#N)NC(=O)CC3CC(F)(F)C3)cc2n1)C1CCC(F)(F)CC1` (single isomer, unassigned) [Example 446, N—((S)-(7-((R*)-2-Cyano-1-(2-(3,3-difluorocyclobutyl)acetamido)ethyl)imidazo[1,2-b]pyridazin-2-yl)(4,4-difluorocyclohexyl)methyl)-4-methyl-1,2,5-oxadiazole-3-carboxamide], the results for the IC50 in assay [1] and in assay [2] were 0.71 µM and 8.8 µM, respectively.

Turning to `CC(C)n1nccc1C(=O)N[C@H](c1cn2ncc(C(CC#N)NC(=O)CC3CC(F)(F)C3)cc2n1)C1CCC(F)(F)CC1` (single isomer, unassigned) [Example 447, N—((S)-(7-((R*)-2-Cyano-1-(2-(3,3-difluorocyclobutyl)acetamido)ethyl)imidazo[1,2-b]pyridazin-2-yl)(4,4-difluorocyclohexyl)methyl)-1-isopropyl-1H-pyrazole-5-carboxamide], the results for the half-inhibitory concentration (IC50) in assay [1] and in assay [2] were 0.3 µM and 1.1 µM, respectively.

`N#CC1([C@@H](NC(=O)C[C@H]2CC2(F)F)c2cnn3cc([C@@H](NC(=O)c4nonc4C4CC4)C4CCC(F)(F)CC4)nc3c2)CCC1` (single isomer, unassigned) [Example 448]: the IC50 is 0.035 µM in assay [1] and 0.012 µM in assay [2] (Homo sapiens, Keratinocyte).

With `O=C(CCC(F)(F)F)NC(c1cnn2cc([C@@H](NC(=O)c3nnsc3C3CC3)C3CCC(F)(F)CC3)nc2c1)C1CC1` (single isomer, unassigned) [Example 466, 5-Cyclopropyl-N—((S)-(7-((R*)-cyclopropyl(4,4,4-trifluorobutanamido)methyl)imidazo[1,2-b]pyridazin-2-yl)(4,4-difluorocyclohexyl)methyl)-1,2,3-thiadiazole-4-carboxamide], the IC50 in assay [1] worked out at 0.034 µM; in assay [2] (Homo sapiens, Keratinocyte) it was 0.21 µM.

As for `Cc1nsnc1C(=O)N[C@H](c1cn2ncc(C(NC(=O)CCC(F)(F)F)C3CC3)cc2n1)C1CCC(F)(F)CC1` (single isomer, unassigned) [Example 467, N—((S)-(7-((R*)-Cyclopropyl(4,4,4-trifluorobutanamido)methyl)imidazo[1,2-b]pyridazin-2-yl)(4,4-difluorocyclohexyl)methyl)-4-methyl-1,2,5-thiadiazole-3-carboxamide], the IC50 in assay [1] stood at 0.058 µM; in assay [2] (Homo sapiens, Keratinocyte) it was 0.36 µM.

For `CC(C)n1nccc1C(=O)N[C@H](c1cn2ncc(C(NC(=O)CCC(F)(F)F)C3CCC3)cc2n1)C1CCC(F)(F)CC1` (single isomer, unassigned) [Example 490, N—((S)-(7-((R*)-Cyclobutyl(4,4,4-trifluorobutanamido)methyl)imidazo[1,2-b]pyridazin-2-yl)(4,4-difluorocyclohexyl)methyl)-1-isopropyl-1H-pyrazole-5-carboxamide], the half-inhibitory concentration (IC50) in assay [1] came to 0.15 µM; in assay [2] (Homo sapiens, Keratinocyte) it was 0.067 µM.

As for `Cc1nonc1C(=O)N[C@H](c1cn2ncc(C(NC(=O)CCC(F)(F)F)C3CCC3)cc2n1)C1CCC(F)(F)CC1` (single isomer, unassigned) [Example 491, N—((S)-(7-((R*)-Cyclobutyl(4,4,4-trifluorobutanamido)methyl)imidazo[1,2-b]pyridazin-2-yl)(4,4-difluorocyclohexyl)methyl)-4-methyl-1,2,5-oxadiazole-3-carboxamide], the half-inhibitory concentration (IC50) in assay [1] was found to be 0.039 µM; in assay [2] (Homo sapiens, Keratinocyte), 0.085 µM.

With `[2H]C([2H])([2H])n1nccc1C(=O)N[C@H](c1cn2ncc(C(NC(=O)CCC(F)(F)F)C3CCC3)cc2n1)C1CCC(F)(F)CC1` (single isomer, unassigned) [Example 492, N—((S)-(7-((R*)-Cyclobutyl(4,4,4-trifluorobutanamido)methyl)imidazo[1,2-b]pyridazin-2-yl)(4,4-difluorocyclohexyl)methyl)-1-(methyl-d3)-1H-pyrazole-5-carboxamide], the IC50 came out at 0.065 µM in assay [1] and 0.095 µM in assay [2] (Homo sapiens, Keratinocyte).

`Cc1nonc1C(=O)N[C@H](c1cn2ncc(C(NC(=O)CC3CC(F)(F)C3)C3CCC3)cc2n1)C1CCC(F)(F)CC1` (single isomer, unassigned) [Example 493, N—((S)-(7-((R*)-Cyclobutyl(2-(3,3-difluorocyclobutyl)acetamido)methyl)imidazo[1,2-b]pyridazin-2-yl)(4,4-difluorocyclohexyl)methyl)-4-methyl-1,2,5-oxadiazole-3-carboxamide]: the IC50 stood at 0.079 µM in assay [1] and 0.12 µM in assay [2].

Turning to `Cc1nonc1C(=O)N[C@H](c1cn2ncc(C(NC(=O)CC3CC(F)(F)C3)C3CCC3)cc2n1)C1CCC(F)(F)CC1` (single isomer, unassigned) [Example 494, N—((S)-(7-((S*)-Cyclobutyl(2-(3,3-difluorocyclobutyl)acetamido)methyl)imidazo[1,2-b]pyridazin-2-yl)(4,4-difluorocyclohexyl)methyl)-4-methyl-1,2,5-oxadiazole-3-carboxamide], the IC50 in assay [1] is 1 µM; in assay [2] it was greater than 20 µM.

For the compound `[2H]C([2H])([2H])C([2H])([2H])n1nccc1C(=O)N[C@H](c1cn2ncc(C(NC(=O)CC3CC(F)(F)C3)C3CCC3)cc2n1)C1CCC(F)(F)CC1` (single isomer, unassigned) [Example 495, N—((S)-(7-((R*)-Cyclobutyl(2-(3,3-difluorocyclobutyl)acetamido)methyl)imidazo[1,2-b]pyridazin-2-yl)(4,4-difluorocyclohexyl)methyl)-1-(ethyl-d5)-1H-pyrazole-5-carboxamide], the figures for the IC50 in assay [1] and in assay [2] were 0.04 µM and 0.3 µM, respectively.

As for `[2H]C([2H])([2H])C([2H])([2H])n1nccc1C(=O)N[C@H](c1cn2ncc(C(NC(=O)CC3CC(F)(F)C3)C3CCC3)cc2n1)C1CCC(F)(F)CC1` (single isomer, unassigned) [Example 496, N—((S)-(7-((S*)-Cyclobutyl(2-(3,3-difluorocyclobutyl)acetamido)methyl)imidazo[1,2-b]pyridazin-2-yl)(4,4-difluorocyclohexyl)methyl)-1-(ethyl-d5)-1H-pyrazole-5-carboxamide], the IC50 in assay [1] stood at 0.69 µM; in assay [2] it was 10 µM.
